From the kinase profiling compilation of Christmann-Franck et al. (2016)

Columns and labels:
Assay in all cases: KINOMEscan competition binding
Conditions in all cases: compound 10.0 µM
ACVR2B (human) = ACVR2B (human) (UniProt Q13705)
BMPR1A (human) = BMPR1A (human) (UniProt P36894)
CDC2L2 (human) = CDC2L2 (human) (UniProt Q9UQ88)
CDC42BPB (human) = CDC42BPB (human) (UniProt Q9Y5S2)
CDK15 (human) = CDK15 (human) (UniProt Q96Q40)
CDK8 (human) = CDK8 (human) (UniProt P49336)
CDKL3 (human) = CDKL3 (human) (UniProt Q8IVW4)
CSNK1D (human) = CSNK1D (human) (UniProt P48730)
CSNK1E (human) = CSNK1E (human) (UniProt P49674)
CSNK1G1 (human) = CSNK1G1 (human) (UniProt Q9HCP0)
CSNK1G3 (human) = CSNK1G3 (human) (UniProt Q9Y6M4)
DAPK2 (human) = DAPK2 (human) (UniProt Q9UIK4)
DYRK2 (human) = DYRK2 (human) (UniProt Q92630)
EPHB6 (human) = EPHB6 (human) (UniProt O15197)
ERBB3 (human) = ERBB3 (human) (UniProt P21860)
FES (human) = FES (human) (UniProt P07332)
FGFR2 (human) = FGFR2 (human) (UniProt P21802)
[1] = test system: FGFR3 (human), P22607 [G697C]
FLT3 (human) = FLT3 (human) (UniProt P36888)
IRAK3 (human) = IRAK3 (human) (UniProt Q9Y616)
[2] = target: JAK1 JH2 pseudokinase (human) (UniProt P23458)
MAP2K3 (human) = MAP2K3 (human) (UniProt P46734)
MAP3K2 (human) = MAP3K2 (human) (UniProt Q9Y2U5)
MKNK2 (human) = MKNK2 (human) (UniProt Q9HBH9)
MST4 (human) = MST4 (human) (UniProt Q9P289)
OXSR1 (human) = OXSR1 (human) (UniProt O95747)
PAK7 (human) = PAK7 (human) (UniProt Q9P286)
PDGFRB (human) = PDGFRB (human) (UniProt P09619)
PIK3CB (human) = PIK3CB (human) (UniProt P42338)
PIM1 (human) = PIM1 (human) (UniProt P11309)
PRKACB (human) = PRKACB (human) (UniProt P22694)
PRKCD (human) = PRKCD (human) (UniProt Q05655)
PTK6 (human) = PTK6 (human) (UniProt Q13882)
RIOK2 (human) = RIOK2 (human) (UniProt Q9BVS4)
RIPK4 (human) = RIPK4 (human) (UniProt P57078)
RPS6KA3 KD1 (human) = RPS6KA3 KD1 (human) (UniProt P51812)
SYK (human) = SYK (human) (UniProt P43405)
TNK1 (human) = TNK1 (human) (UniProt Q13470)
TTK (human) = TTK (human) (UniProt P33981)
MELK (human) = MELK (human) (UniProt Q14680)

Chain of FGFR2 (human) (P21802 whole entry, looked up): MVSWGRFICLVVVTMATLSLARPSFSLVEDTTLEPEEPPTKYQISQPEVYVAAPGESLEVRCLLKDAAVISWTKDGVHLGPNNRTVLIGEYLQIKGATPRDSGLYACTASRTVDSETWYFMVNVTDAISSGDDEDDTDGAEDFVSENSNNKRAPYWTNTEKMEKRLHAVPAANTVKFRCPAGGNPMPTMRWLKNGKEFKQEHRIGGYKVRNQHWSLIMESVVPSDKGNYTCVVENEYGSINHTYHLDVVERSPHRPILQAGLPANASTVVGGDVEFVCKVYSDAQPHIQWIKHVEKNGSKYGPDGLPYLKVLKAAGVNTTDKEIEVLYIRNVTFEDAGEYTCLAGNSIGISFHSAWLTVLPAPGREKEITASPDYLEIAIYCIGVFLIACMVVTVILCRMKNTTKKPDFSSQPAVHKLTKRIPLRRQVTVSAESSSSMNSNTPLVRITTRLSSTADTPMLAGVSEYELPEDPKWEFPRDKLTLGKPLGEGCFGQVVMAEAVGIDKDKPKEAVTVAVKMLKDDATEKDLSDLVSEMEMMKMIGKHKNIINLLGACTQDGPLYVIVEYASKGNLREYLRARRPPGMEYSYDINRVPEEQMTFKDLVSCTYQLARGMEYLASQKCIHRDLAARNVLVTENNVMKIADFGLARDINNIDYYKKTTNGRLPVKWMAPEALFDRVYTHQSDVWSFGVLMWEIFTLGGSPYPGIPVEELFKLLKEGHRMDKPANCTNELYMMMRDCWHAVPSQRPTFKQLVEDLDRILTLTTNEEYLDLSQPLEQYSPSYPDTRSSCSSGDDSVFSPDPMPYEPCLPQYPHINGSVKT
Chain of CSNK1D (human) (P48730 whole entry, looked up): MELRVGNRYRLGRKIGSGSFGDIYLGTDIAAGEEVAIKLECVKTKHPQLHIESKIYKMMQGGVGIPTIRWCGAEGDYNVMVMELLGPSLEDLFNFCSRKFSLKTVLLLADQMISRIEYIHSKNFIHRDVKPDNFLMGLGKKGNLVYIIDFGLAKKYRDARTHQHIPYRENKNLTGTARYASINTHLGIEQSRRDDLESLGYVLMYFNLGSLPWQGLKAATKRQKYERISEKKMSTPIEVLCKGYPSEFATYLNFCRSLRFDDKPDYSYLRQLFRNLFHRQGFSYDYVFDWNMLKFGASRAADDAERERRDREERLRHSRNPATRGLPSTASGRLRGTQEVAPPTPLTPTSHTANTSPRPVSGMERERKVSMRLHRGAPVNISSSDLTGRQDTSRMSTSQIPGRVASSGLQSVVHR
Chain of CDKL3 (human) (Q8IVW4 whole entry, looked up): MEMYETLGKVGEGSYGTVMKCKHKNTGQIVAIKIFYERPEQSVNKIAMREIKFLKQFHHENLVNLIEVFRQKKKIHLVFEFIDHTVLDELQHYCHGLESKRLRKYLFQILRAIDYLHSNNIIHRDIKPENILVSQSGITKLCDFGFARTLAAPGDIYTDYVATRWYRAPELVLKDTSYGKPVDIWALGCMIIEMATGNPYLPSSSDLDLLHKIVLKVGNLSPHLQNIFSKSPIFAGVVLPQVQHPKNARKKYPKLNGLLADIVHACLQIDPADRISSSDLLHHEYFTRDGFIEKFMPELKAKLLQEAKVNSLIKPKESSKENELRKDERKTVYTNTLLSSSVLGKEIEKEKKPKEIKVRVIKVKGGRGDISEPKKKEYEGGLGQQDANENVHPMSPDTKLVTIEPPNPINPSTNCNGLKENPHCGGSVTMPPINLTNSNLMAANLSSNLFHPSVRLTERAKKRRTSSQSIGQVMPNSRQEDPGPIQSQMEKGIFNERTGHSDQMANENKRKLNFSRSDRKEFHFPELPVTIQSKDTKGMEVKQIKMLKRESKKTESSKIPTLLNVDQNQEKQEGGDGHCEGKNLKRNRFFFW
Chain of CDC2L2 (human) (Q9UQ88 whole entry, looked up): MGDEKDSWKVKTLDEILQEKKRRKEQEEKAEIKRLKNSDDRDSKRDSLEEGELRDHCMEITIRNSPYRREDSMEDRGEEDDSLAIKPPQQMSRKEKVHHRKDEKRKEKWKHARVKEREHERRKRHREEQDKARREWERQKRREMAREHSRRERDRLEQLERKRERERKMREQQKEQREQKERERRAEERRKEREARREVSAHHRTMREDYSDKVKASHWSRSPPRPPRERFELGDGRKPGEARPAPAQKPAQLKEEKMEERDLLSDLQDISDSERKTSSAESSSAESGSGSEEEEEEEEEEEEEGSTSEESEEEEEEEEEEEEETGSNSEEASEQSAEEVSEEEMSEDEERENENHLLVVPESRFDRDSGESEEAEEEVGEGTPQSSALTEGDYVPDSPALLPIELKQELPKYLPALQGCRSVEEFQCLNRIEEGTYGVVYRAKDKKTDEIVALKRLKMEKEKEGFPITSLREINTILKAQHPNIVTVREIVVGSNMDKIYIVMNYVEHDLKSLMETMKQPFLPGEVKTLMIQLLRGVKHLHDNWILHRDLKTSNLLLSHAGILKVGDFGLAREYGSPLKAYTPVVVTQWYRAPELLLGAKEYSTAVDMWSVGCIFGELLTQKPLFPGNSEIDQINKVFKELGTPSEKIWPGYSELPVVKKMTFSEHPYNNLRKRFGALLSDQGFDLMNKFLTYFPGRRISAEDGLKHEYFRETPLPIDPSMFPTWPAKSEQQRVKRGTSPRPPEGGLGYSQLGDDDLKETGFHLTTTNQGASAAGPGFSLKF
Chain of IRAK3 (human) (Q9Y616 whole entry, looked up): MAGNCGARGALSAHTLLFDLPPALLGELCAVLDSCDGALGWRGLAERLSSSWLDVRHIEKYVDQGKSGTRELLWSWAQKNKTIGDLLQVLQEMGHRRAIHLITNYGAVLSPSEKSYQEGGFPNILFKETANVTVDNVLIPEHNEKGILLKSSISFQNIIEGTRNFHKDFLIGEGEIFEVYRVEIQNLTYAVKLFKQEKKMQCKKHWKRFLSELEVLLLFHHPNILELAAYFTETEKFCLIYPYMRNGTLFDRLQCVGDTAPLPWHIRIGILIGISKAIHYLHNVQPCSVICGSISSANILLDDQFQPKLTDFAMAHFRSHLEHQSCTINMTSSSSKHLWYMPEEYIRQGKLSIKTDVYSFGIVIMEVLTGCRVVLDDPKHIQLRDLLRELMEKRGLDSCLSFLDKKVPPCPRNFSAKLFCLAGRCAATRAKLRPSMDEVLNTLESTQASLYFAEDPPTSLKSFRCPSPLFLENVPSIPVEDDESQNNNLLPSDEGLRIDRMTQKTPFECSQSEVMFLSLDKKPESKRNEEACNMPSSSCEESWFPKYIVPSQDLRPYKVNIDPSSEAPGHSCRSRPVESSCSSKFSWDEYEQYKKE
Chain of TNK1 (human) (Q13470 whole entry, looked up): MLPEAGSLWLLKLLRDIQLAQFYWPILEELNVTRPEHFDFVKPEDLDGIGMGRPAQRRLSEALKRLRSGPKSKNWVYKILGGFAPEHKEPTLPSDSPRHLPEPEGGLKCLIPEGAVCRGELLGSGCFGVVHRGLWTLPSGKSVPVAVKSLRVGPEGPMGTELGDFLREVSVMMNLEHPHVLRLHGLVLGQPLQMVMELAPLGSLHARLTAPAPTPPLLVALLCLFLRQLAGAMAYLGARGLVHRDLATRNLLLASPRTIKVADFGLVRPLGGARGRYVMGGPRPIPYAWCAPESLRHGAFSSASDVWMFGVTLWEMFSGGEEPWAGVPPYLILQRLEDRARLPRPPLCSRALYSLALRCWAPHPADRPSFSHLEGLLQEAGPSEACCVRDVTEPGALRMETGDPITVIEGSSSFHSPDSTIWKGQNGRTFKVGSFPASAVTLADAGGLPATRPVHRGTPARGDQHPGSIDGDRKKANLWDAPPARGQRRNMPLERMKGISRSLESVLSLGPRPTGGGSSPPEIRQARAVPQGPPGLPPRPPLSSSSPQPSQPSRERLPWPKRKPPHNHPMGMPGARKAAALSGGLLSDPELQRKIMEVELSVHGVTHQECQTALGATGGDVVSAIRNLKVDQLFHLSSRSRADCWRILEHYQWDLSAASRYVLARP
Chain of JAK1 JH2 pseudokinase (human) (P23458 whole entry, looked up): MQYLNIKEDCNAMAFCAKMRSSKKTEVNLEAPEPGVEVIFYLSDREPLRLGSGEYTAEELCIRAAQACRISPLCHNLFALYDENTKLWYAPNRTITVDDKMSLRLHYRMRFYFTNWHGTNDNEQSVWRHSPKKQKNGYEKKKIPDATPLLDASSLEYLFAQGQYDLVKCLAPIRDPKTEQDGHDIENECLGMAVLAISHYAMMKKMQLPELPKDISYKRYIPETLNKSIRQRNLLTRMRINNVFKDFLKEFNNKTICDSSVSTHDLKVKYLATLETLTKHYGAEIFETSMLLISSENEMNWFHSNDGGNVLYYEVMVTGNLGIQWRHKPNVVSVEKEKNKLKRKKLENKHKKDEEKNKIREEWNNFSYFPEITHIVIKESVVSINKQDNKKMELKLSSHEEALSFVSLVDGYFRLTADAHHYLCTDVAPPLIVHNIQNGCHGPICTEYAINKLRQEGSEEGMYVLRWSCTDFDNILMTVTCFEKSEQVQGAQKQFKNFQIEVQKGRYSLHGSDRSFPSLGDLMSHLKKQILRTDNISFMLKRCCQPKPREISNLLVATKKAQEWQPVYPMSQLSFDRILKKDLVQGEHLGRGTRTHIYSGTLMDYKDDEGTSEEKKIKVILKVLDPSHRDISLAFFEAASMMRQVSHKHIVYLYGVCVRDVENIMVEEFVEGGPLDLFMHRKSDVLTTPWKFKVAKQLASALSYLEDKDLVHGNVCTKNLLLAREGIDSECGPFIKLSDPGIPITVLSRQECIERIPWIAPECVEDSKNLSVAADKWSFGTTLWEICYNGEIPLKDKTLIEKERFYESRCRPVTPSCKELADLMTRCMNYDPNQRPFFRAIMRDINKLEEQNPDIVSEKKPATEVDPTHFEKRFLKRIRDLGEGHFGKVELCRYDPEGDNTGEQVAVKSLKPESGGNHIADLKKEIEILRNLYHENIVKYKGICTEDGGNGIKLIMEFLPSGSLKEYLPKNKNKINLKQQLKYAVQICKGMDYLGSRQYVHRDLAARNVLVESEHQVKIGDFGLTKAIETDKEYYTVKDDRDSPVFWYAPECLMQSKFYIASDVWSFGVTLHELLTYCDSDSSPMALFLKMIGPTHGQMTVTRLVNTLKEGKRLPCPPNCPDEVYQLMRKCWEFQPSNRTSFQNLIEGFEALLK

CCc1nc(-c2cccc(C)c2)c(-c2ccnc(NC(=O)c3ccccc3)c2)s1
kinase still bound, per cent of control (ACVR2B (human)): 17% | kinase still bound, per cent of control (BMPR1A (human)): 14% | kinase still bound, per cent of control (CDC2L2 (human)): 90% | kinase still bound, per cent of control (CDC42BPB (human)): 63% | kinase still bound, per cent of control (CDK15 (human)): 95% | kinase still bound, per cent of control (CDK8 (human)): 88% | kinase still bound, per cent of control (CDKL3 (human)): 81% | kinase still bound, per cent of control (CSNK1D (human)): 2% | kinase still bound, per cent of control (CSNK1E (human)): 0.05% | kinase still bound, per cent of control (CSNK1G1 (human)): 28% | kinase still bound, per cent of control (CSNK1G3 (human)): 17% | kinase still bound, per cent of control (DAPK2 (human)): 88% | kinase still bound, per cent of control (DYRK2 (human)): 99% | kinase still bound, per cent of control (EPHB6 (human)): 16% | kinase still bound, per cent of control (ERBB3 (human)): 49% | kinase still bound, per cent of control (FES (human)): 97% | kinase still bound, per cent of control (FGFR2 (human)): 71% | kinase still bound, per cent of control [1]: 93% | kinase still bound, per cent of control (FLT3 (human)): 17% | kinase still bound, per cent of control (IRAK3 (human)): 84% | kinase still bound, per cent of control [2]: 70% | kinase still bound, per cent of control (MAP2K3 (human)): 96% | kinase still bound, per cent of control (MAP3K2 (human)): 100% | kinase still bound, per cent of control (MKNK2 (human)): 94% | kinase still bound, per cent of control (MST4 (human)): 100% | kinase still bound, per cent of control (OXSR1 (human)): 100% | kinase still bound, per cent of control (PAK7 (human)): 90% | kinase still bound, per cent of control (PDGFRB (human)): 34% | kinase still bound, per cent of control (PIK3CB (human)): 95% | kinase still bound, per cent of control (PIM1 (human)): 87% | kinase still bound, per cent of control (PRKACB (human)): 95% | kinase still bound, per cent of control (PRKCD (human)): 50% | kinase still bound, per cent of control (PTK6 (human)): 30% | kinase still bound, per cent of control (RIOK2 (human)): 92% | kinase still bound, per cent of control (RIPK4 (human)): 90% | kinase still bound, per cent of control (RPS6KA3 KD1 (human)): 93% | kinase still bound, per cent of control (SYK (human)): 88% | kinase still bound, per cent of control (TNK1 (human)): 88% | kinase still bound, per cent of control (TTK (human)): 70%

O=c1[nH]c2ccccc2n1C1CCN(Cc2ccc(-c3nc4cc5[nH]cnc5cc4nc3-c3ccccc3)cc2)CC1
kinase still bound, per cent of control (ACVR2B (human)): 100% | kinase still bound, per cent of control (BMPR1A (human)): 77% | kinase still bound, per cent of control (CDC2L2 (human)): 100% | kinase still bound, per cent of control (CDC42BPB (human)): 83% | kinase still bound, per cent of control (CDK15 (human)): 76% | kinase still bound, per cent of control (CDK8 (human)): 100% | kinase still bound, per cent of control (CDKL3 (human)): 100% | kinase still bound, per cent of control (CSNK1D (human)): 18% | kinase still bound, per cent of control (CSNK1E (human)): 15% | kinase still bound, per cent of control (CSNK1G1 (human)): 100% | kinase still bound, per cent of control (CSNK1G3 (human)): 93% | kinase still bound, per cent of control (DAPK2 (human)): 100% | kinase still bound, per cent of control (DYRK2 (human)): 88% | kinase still bound, per cent of control (EPHB6 (human)): 69% | kinase still bound, per cent of control (ERBB3 (human)): 100% | kinase still bound, per cent of control (FES (human)): 100% | kinase still bound, per cent of control (FGFR2 (human)): 100% | kinase still bound, per cent of control [1]: 89% | kinase still bound, per cent of control (IRAK3 (human)): 100% | kinase still bound, per cent of control [2]: 79% | kinase still bound, per cent of control (MAP2K3 (human)): 100% | kinase still bound, per cent of control (MAP3K2 (human)): 100% | kinase still bound, per cent of control (MELK (human)): 77% | kinase still bound, per cent of control (MKNK2 (human)): 81% | kinase still bound, per cent of control (MST4 (human)): 100% | kinase still bound, per cent of control (OXSR1 (human)): 81% | kinase still bound, per cent of control (PAK7 (human)): 58% | kinase still bound, per cent of control (PDGFRB (human)): 72% | kinase still bound, per cent of control (PIK3CB (human)): 6.7% | kinase still bound, per cent of control (PIM1 (human)): 93% | kinase still bound, per cent of control (PRKACB (human)): 100% | kinase still bound, per cent of control (PRKCD (human)): 81% | kinase still bound, per cent of control (PTK6 (human)): 100% | kinase still bound, per cent of control (RIOK2 (human)): 79% | kinase still bound, per cent of control (RIPK4 (human)): 87% | kinase still bound, per cent of control (RPS6KA3 KD1 (human)): 67% | kinase still bound, per cent of control (SYK (human)): 84% | kinase still bound, per cent of control (TNK1 (human)): 91% | kinase still bound, per cent of control (TTK (human)): 100%
